Experiments:
Experiment in all cases: Resazurin viability, 5 days
A3 = assay type: cell-based, human; details: Homo sapiens, 120 h, A3, C, T-cell acute lymphoblastic leukemia
Experimental: (§1) Cells were seeded in 96- or 384-well plates and incubated for 3 days for combination experiments or 5 days for single-drug exposure experiments. Resazurin (R7017, SigmaAldrich) was added to a final concentration of 0.01 mg/ml resazurin and fluorescence was measured at ex530/em590 after incubation for 2, 4 or 6 h. Curves were fitted using XLfit software (IDBS) or Prism 8.0 (Graphpad Software), and EC50 values were determined.
(§2) Supplementary Table S1: Effect of OGG1 inhibitors on cancer and non-transformed cell lines.
(§3) Cell lines were incubated with a dilution series of the indicated compounds for 5 days, and viability
(§4) assessed with resazurin. EC50-values were calculated based on the resulting dose -response curves.
(§5) The number of independent experiments is indicated for each value.
(§6) C=cancer;N=non- Disease EC50 n= EC50 n= EC50 n=
(§7) transformed (µM) (µM) (µM)

CCRF-CEM = assay type: cell-based, human; details: Homo sapiens, 120 h, C, T-cell acute lymphoblastic leukemia
Experimental: as §1, §2, §3, §4, §5, §6, §7
A3 C T-cell acute lymphoblastic leukemia 10.0 12 7.9 7 9.8 5 […]
CCRF-CEM C T-cell acute lymphoblastic leukemia 13.0 5 10.5 2 7.9 2 […]

RFX393 = assay type: cell-based, human; details: Homo sapiens, 120 h, RFX393, C, Kidney carcinoma
Experimental: as §1, §2, §3, §4, §5, §6
(§8) transformed (µM) (µM) (µM) […]

ACHN = assay type: cell-based, human; details: Homo sapiens, 120 h, C, Kidney adenocarcinoma
Experimental: as §1, §2, §3, §4, §5, §6, §8

BJ-Ras = assay type: cell-based, human; details: Homo sapiens, 120 h, C, RAS-transformed fibroblast
Experimental: as §1, §2, §3, §4, §5, §6, §8

Jurkat = assay type: cell-based, human; details: Homo sapiens, 120 h, C, T-cell acute lymphoblastic leukemia
Experimental: as §1, §2, §3, §4, §5, §6, §8

LCL#1 = assay type: cell-based, human; details: Homo sapiens, 120 h, LCL#1, N, Non-transformed lymphoblastoid cell line
Experimental: as §1, §2, §3, §4, §5, §6, §8

Reh = assay type: cell-based, human; details: Homo sapiens, 120 h, C, Acute lymphocytic leukemia (non-T, non-B)
Experimental: as §1, §2, §3, §4, §5, §6, §8

LCL#2 = assay type: cell-based, human; details: Homo sapiens, 120 h, LCL#2, N, Non-transformed lymphoblastoid cell line
Experimental: as §1, §2, §3, §4, §5, §6, §8

KG1a = assay type: cell-based, human; details: Homo sapiens, KG-1a, 120 h, C, Acute myelogenous leukemia
Experimental: as §1, §2, §3, §4, §5, §6

HT-29 = assay type: cell-based, human; details: Homo sapiens, 120 h, HT-29, C, Colorectal adenocarcinoma
Experimental: as §1, §2, §3, §4, §5, §6

SW480 = assay type: cell-based, human; details: Homo sapiens, 120 h, SW480, C, Colorectal adenocarcinoma
Experimental: as §1, §2, §3, §4, §5, §6

HCT116+Chr3 = assay type: cell-based, human; details: Homo sapiens, 120 h, HCT116+Chr3, C, Colorectal carcinoma with WT Chr3
Experimental: as §1, §2, §3, §4, §5, §6

Daudi = assay type: cell-based, human; details: Homo sapiens, 120 h, C, Burkitt's lymphoma
Experimental: as §1, §2, §3, §4, §5, §6

MRC5 = assay type: cell-based, human; details: Homo sapiens, 120 h, MRC5, N, Non-transformed lung fibroblast
Experimental: as §1, §2, §3, §4, §5, §6

PC3 = assay type: cell-based, human; details: Homo sapiens, PC-3, 120 h, PC3, C, Prostate adenocarcinoma
Experimental: as §1, §2, §3, §4, §5, §6

M059K = assay type: cell-based, human; details: Homo sapiens, 120 h, C, Glioblastoma
Experimental: as §1, §2, §3, §4, §5, §6

H460 = assay type: cell-based, human; details: Homo sapiens, NCI-H460, 120 h, H460, C, Large cell lung carcinoma
Experimental: as §1, §2, §3, §4, §5, §6

M059J = assay type: cell-based, human; details: Homo sapiens, 120 h, C, Glioblastoma
Experimental: as §1, §2, §3, §4, §5, §6

UO31 = assay type: cell-based, human; details: Homo sapiens, UO-31, 120 h, UO31, C, Kidney carcinoma
Experimental: as §1, §2, §3, §4, §5, §6

MOLT4 = assay type: cell-based, human; details: Homo sapiens, MOLT-4, 120 h, MOLT4, C, T-cell acute lymphoblastic leukemia
Experimental: as §1, §2, §3, §4, §5, §6

PL-21 = assay type: cell-based, human; details: Homo sapiens, 120 h, PL-21, C, Acute myeloid leukemia
Experimental: as §1, §2, §3, §4, §5, §6

Raji = assay type: cell-based, human; details: Homo sapiens, 120 h, C, Burkitt's lymphoma
Experimental: as §1, §2, §3, §4, §5, §6

SaOS2 = assay type: cell-based, human; details: Homo sapiens, SAOS-2, 120 h, SaOS2, C, Osteosarcoma
Experimental: as §1, §2, §3, §4, §5, §6

BJ-Tert = assay type: cell-based, human; details: Homo sapiens, 120 h; BJ-Tert, N, Tert-Immortalized fibroblast; 5 days, resazurin; read-out: EC50
Experimental: as §1, §2, §3, §4, §5, §6

T98G = assay type: cell-based, human; details: Homo sapiens, 120 h, C, Glioblastoma
Experimental: as §1, §2, §3, §4, §5, §6

A498 = assay type: cell-based, human; details: Homo sapiens, 120 h, A498, C, Kidney carcinoma
Experimental: as §1, §2, §3, §4, §5, §6

HeLa = assay type: cell-based, human; details: Homo sapiens, 120 h, C, Cervix adenomcarcinoma
Experimental: as §1, §2, §3, §4, §5, §6

U2OS = assay type: cell-based, human; details: Homo sapiens, 120 h, C, Osteosarcoma
Experimental: as §1, §2, §3, §4, §5, §6

Rec1 = assay type: cell-based, human; details: Homo sapiens, 120 h, Rec1, C, B cell non-Hodgkin's lymphoma
Experimental: as §1, §2, §3, §4, §5, §6

CCD841 = assay type: cell-based, human; details: Homo sapiens, CCD-841, 120 h, CCD841, N, Non-transformed fibroblast
Experimental: as §1, §2, §3, §4, §5, §6

HCT116 = assay type: cell-based, human; details: Homo sapiens, HCT-116, 120 h, HCT116, C, Colorectal carcinoma
Experimental: as §1, §2, §3, §4, §5, §6

MV4-11 = assay type: cell-based, human; details: Homo sapiens, 120 h, MV4-11, C, Acute monocytic leukemia
Experimental: as §1, §2, §3, §4, §5, §6

DU145 = assay type: cell-based, human; details: Homo sapiens, DU-145, 120 h, DU145, C, Prostate carcinoma
Experimental: as §1, §2, §3, §4, §5, §6

VH10 = assay type: cell-based, human; details: Homo sapiens, 120 h, VH10, N, Non-transformed fibroblast
Experimental: as §1, §2, §3, §4, §5, §6

HL-60 = assay type: cell-based, human; details: Homo sapiens, 120 h, HL-60, C, Acute promyelocytic leukemia
Experimental: as §1, §2, §3, §4, §5, §6

786-0 = assay type: cell-based, human; details: Homo sapiens, 120 h, 786-0, C, Kidney adenocarcinoma
Experimental: as §1, §2, §3, §4, §5, §6

MEF Ogg1(-/-) = assay type: cell-based; details: 120 h, N, Non-transformed mouse embryonic fibroblast
Experimental: as §1, §2, §3, §4, §5, §6, §8

O=C(Nc1ccc(Cl)c(Cl)c1)N1CCC(n2c(=O)[nH]c3c(-c4ccc(CO)nc4)cccc32)CC1 [TH5796, N-(3,4-Dichlorophenyl)-4-[4-[6-(hydroxymethyl)-3-pyridyl]-2-oxo-3H-benzimidazol-1-yl]piperidine-1-carbox amide] gave an EC50 (A3) of 7.9 µM, an EC50 (CCRF-CEM) of 10.5 µM and an EC50 (RFX393) of 14.2 µM. It also gave an EC50 (ACHN) of 8.5 µM, an EC50 (BJ-Ras) of 15.1 µM and an EC50 (Jurkat) of 13.8 µM. It also gave an EC50 (LCL#1) of 33.5 µM, an EC50 (Reh) of 14.7 µM and an EC50 (LCL#2) of 40.7 µM. The EC50 (KG1a) was 18 µM, the EC50 (HT-29) was 22.6 µM and the EC50 (SW480) was 20.3 µM. The EC50 (HCT116+Chr3) was 16.7 µM, the EC50 (Daudi) was 10.1 µM and the EC50 (MRC5) was 20.8 µM. It also gave an EC50 (PC3) of 19.3 µM, an EC50 (M059K) of 19.4 µM and an EC50 (H460) of 14.4 µM. The EC50 (M059J) was 20.6 µM, the EC50 (UO31) was 7.1 µM and the EC50 (MOLT4) was 12.6 µM. For the same molecule, the EC50 (PL-21) was 10.2 µM, the EC50 (Raji) was 20.5 µM and the EC50 (SaOS2) was 16.2 µM. For the same molecule, the EC50 (BJ-Tert) was 24.4 µM, the EC50 (T98G) was 18.5 µM and the EC50 (A498) was 21.2 µM. The EC50 (HeLa) was 15.8 µM, the EC50 (U2OS) was 16.1 µM and the EC50 (Rec1) was 12.6 µM. The EC50 (CCD841) was 39.7 µM, the EC50 (HCT116) was 14.7 µM and the EC50 (MV4-11) was 6.5 µM. The EC50 (DU145) was 10.7 µM, the EC50 (VH10) was 20.9 µM and the EC50 (HL-60) was 14.4 µM. The EC50 (786-0) was 15.2 µM and the EC50 (MEF Ogg1(-/-)) was 45.8 µM.

Work on Cc1cc(NC(=O)N2CCC(n3c(=O)[nH]c4c(Br)cccc43)CC2)ccc1I [TH6943, 4-(4-Bromo-2-oxo-3H-benzimidazol-1-yl)-N-(4-iodo-3-methyl-phenyl)piperidine-1-carboxamide] yielded an EC50 (A3) of 9.8 µM, an EC50 (CCRF-CEM) of 7.9 µM and an EC50 (RFX393) of 11.7 µM. It also gave an EC50 (ACHN) of 2.8 µM, an EC50 (BJ-Ras) of 14.1 µM and an EC50 (Jurkat) of 15.2 µM. The EC50 (LCL#1) was 40 µM, the EC50 (Reh) was 17.3 µM and the EC50 (LCL#2) was 32.3 µM. The EC50 (KG1a) was 18.8 µM, the EC50 (HT-29) was 22 µM and the EC50 (SW480) was 29.8 µM. It also gave an EC50 (HCT116+Chr3) of 20.3 µM, an EC50 (Daudi) of 12.1 µM and an EC50 (MRC5) of 47.1 µM. The EC50 (PC3) was 28.7 µM, the EC50 (M059K) was 27 µM and the EC50 (H460) was 16.5 µM. It also gave an EC50 (M059J) of 29.4 µM, an EC50 (UO31) of 3.2 µM and an EC50 (MOLT4) of 17.4 µM. It also gave an EC50 (PL-21) of 18.4 µM, an EC50 (Raji) of 23.4 µM and an EC50 (SaOS2) of 19.8 µM. It also gave an EC50 (BJ-Tert) of 30.5 µM, an EC50 (T98G) of 16.7 µM and an EC50 (A498) of 35.1 µM. It also gave an EC50 (HeLa) of 34.9 µM, an EC50 (U2OS) of 25.1 µM and an EC50 (Rec1) of 14.8 µM. It also gave an EC50 (CCD841) of 54.2 µM, an EC50 (HCT116) of 28.6 µM and an EC50 (MV4-11) of 9.6 µM. For the same molecule, the EC50 (DU145) was 3.1 µM, the EC50 (VH10) was 47.5 µM and the EC50 (HL-60) was 23.9 µM. The EC50 (786-0) was 33 µM and the EC50 (MEF Ogg1(-/-)) was 34.3 µM.
